US20010033864A1, “Low dose entecavir formulation and use” (priority 2000, published 2001)

Legend:
hepatitis B virus [1] = assay: 28-day randomized, double-blind, placebo-controlled, dose-escalating trial of safety and antiviral activity in chronic hepatitis B; format: in vivo, human; settings: for mean log reduction in hepatitis B virus DNA viral levels in the blood: human subjects with chronic HBV infection, day 28
Description: The safety and antiviral activity of entecavir given for 28 days to human subjects with chronic hepatitis B virus infection was studied in a randomized, double-blind, placebo-controlled, dose-escalating trial. […] The mean log reduction in hepatitis B virus DNA viral levels in the blood at day 28 were 2.21, 2.25, 2.81, and 2.42 for the 0.05, 0.1, 0.5 and 1.0 mg once daily doses of entecavir, respectively.

hepatitis B virus [2] = assay: 24-week randomized, double-blind, lamivudine-controlled trial of safety and antiviral activity in chronic hepatitis B; format: in vivo, human; settings: 24 weeks
Description: The safety and antiviral activity of three doses of entecavir (0.01 mg, 0.1 mg and 0.5 mg) given once daily for 24 weeks were studies in adults with chronic hepatitis B in a randomized, double-blind, lamivudine (100 mg QD) controlled trial.

With `C=C1C(CO)C(O)C[C@@H]1n1cnc2c(=O)[nH]c(N)nc21` (stereo partly drawn) [Entecavir, [1S-(1α,3α, 4β)]-2-amino-1,9-dihydro-9-[4-hydroxy-3-(hydroxymethyl)-2-methylenecyclopentyl]-6H-purin-6-one] the safety / tolerability (hepatitis B virus [1]; 0.05-1.0 mg once daily for 28 days, human subjects) was “well tolerated”, the antiviral activity (hepatitis B virus [1]; all doses tested (0.05, 0.1, 0.5, 1.0 mg once daily), 28 days) was “potent antiviral activity” and the “mean log reduction in hepatitis B virus DNA viral levels in the blood” value (from here on “mean log reduction”) (hepatitis B virus [1]; 0.05 mg once daily) was 2.21 log. The “mean log reduction” value (hepatitis B virus [1]; 0.1 mg once daily) was 2.25 log, the “mean log reduction” value (hepatitis B virus [1]; 0.5 mg once daily) was 2.81 log and the “mean log reduction” value (hepatitis B virus [1]; 1.0 mg once daily) was 2.42 log. The safety / tolerability (hepatitis B virus [2]; all doses (0.01, 0.1, 0.5 mg once daily)) was “well tolerated”, the antiviral activity (hepatitis B virus [2]; all three doses (0.01, 0.1, 0.5 mg once daily), adults with chronic hepatitis B) was “potent antiviral activity” and the “reductions in hepatitis B virus DNA viral levels in blood compared to lamivudine” value (hepatitis B virus [2]; two higher doses (0.1 mg and 0.5 mg once daily), vs lamivudine 100 mg QD) was “significantly greater reductions”.
